In patent US20150099753A1, “FORM 5 POLYMORPH OF 7-(TERT-BUTYL-D9)-3-(2,5-DIFLUOROPHENYL)-6-((1-METHYL-1H-1,2,4-TRIAZOL-5-YL)METHOXY)-[1,2,4]TRIAZOLO[4,3-B]PYRIDAZINE” (Concert Pharmaceuticals Inc., priority 2012, published 2015):

Columns and labels:
Format in all cases: physicochemical
[1] = Dynamic Vapor Sorption (DVS) analysis; settings: DVS at 25° C., 0% RH to 90% RH cycles
Experimental: Dynamic Vapor Sorption (DVS). DVS experiments were conducted on a Surface Measurement Systems DVS-HT at 25° C. The instrument was operated in step mode and the relative humidity was increased in 10% RH increments from 40% RH to 90% RH, then decreased from 90% RH to 0% RH, then increased from 0% RH to 90% RH, then decreased from 90% RH to 0% RH. An extra step at 75% RH was included in each cycle. The mass equilibrium criterion was set at 0.005% change in mass over time (dm/dt) prior to each humidity level. A minimum step time of 10 minutes and a maximum step time of 240 minutes were specified.

[2] = Crystal form stability when suspended and stirred in MeOH:water; settings: stirred for 72 hours at ambient temperature
[3] = Physical (crystal form) stability on exposure to ambient conditions or relative humidity
[4] = Relative thermodynamic stability of non-solvated forms (ripening studies); settings: temperatures from between 22° C. and 70° C.
Experimental: Excess Form 1 was combined with EtOH (1.8 mL) and the suspension was stirred at 57° C. for 6 hrs. The suspension was allowed to settle, and the saturated EtOH solution was isolated, and added into a 2-mL vial containing a mixture of Forms 1, Form 3, and Form 4 ([…] of each). The suspension was stirred at 57° C. for 24 hrs. The solid was isolated on a Büchner funnel and air-dried for ˜6 hrs.
Once the above preparation of Form 5 was obtained, additional Form 5 was produced as follows. Form 1 (100 mg) was weighed into a […] 4-mL vial containing a stir-bar. EtOH (4-mL) was added and the suspension was stirred for 12 hrs and at 25° C. The suspension was filtered and the filtrate (1.8 mL) was added into a 2-mail vial containing equivalent amounts (10 mg) of Forms 3, 4, and 5. An aliquot of the suspension was immediately sampled; the solid was isolated by filtration, and analyzed by PXRD to verify the crystal-form. The suspension was stirred at 25° C. for an additional 24 hrs. A second aliquot was sampled; the solid was isolated by filtration, and analyzed to verify the crystal-form. […]
Once Form 5 crystals were isolated they were used to prepare additional Form 5 as follows. […] The solid was isolated on a Büchner funnel and air-dried for ˜6 hrs and determined to be Form 5.

[2H]C([2H])([2H])C(c1cc2nnc(-c3cc(F)ccc3F)n2nc1OCc1ncnn1C)(C([2H])([2H])[2H])C([2H])([2H])[2H] [Form 5, 7-(tert-Butyl-d9)-3-(2,5-difluorophenyl)-6-((1-methyl-1H-1,2,4-triazol-5-yl)methoxy)-[1,2,4]triazolo[4,3-b]pyridazine]
DVS weight gain (hygroscopicity; non-hygroscopic) [1]: < 0.4 % wt. gain | crystal form conversion in suspension ([2]; suspended in MeOH:water 95:5% volume): converts to Form 2 | crystal form conversion in suspension ([2]; suspended in MeOH:water 98:2% volume): converts to Form 2 | physical stability ([3]; exposed to 75% relative humidity for 5 days): physically stable | physical stability ([3]; exposed to 97% RH for 5 days at room temperature): physically unstable and partially converts to hydrated crystal Form 2 | physical stability ([3]; exposed to ambient conditions for at least 7 days): physically stable | thermodynamic stability relative to other non-solvated forms (Forms 1, 3 and 4) [4]: more thermodynamically stable than any of the other non-solvated forms
